A short description of experiment [1]: Minimum inhibitory concentration (growth at drug concentrations) and effect of para-aminobenzoic acid (PABA), Table II. The experiment is classed as cell-based.
In a further experiment the test system is Pseudomonas. Nature of the experiment: Minimum inhibitory concentrations vs Pseudomonas, Table V. The format is cell-based.

Values after ≈ are worked out from the molar mass of the structure shown. Read-outs that look alike come from different tables or passages of the source.

The source of these data is patent US4049802A (Research Corporation, priority 1975, dated 1977).

On to `CC(=O)[O-].CC(=O)[O-].[Zn+2]` [Zinc Acetate, zinc acetate], for which the “Growth (minimum inhibitory concentration series)” value in experiment [1] (0.05 μ mole/ml drug), in experiment [1] (0.1 μ mole/ml drug), in experiment [1] (0.5 μ mole/ml drug) and in experiment [1] (1.0 μ mole/ml drug) was “+” each time.

For `Nc1ccc(S(=O)(=O)Nc2ncccn2)cc1` [Sodium Sulfadiazine, sodium sulfadiazine], in the experiment on Pseudomonas (listed as Na Sulfadiazine), the “Minimum Inhibitory Concentration vs Pseudomonas” value is recorded as 80 μM/L. Besides, in the experiment on Pseudomonas (listed as Na Sulfadiazine), the “PAB to Block” value is reported as 1/200. The “Growth (minimum inhibitory concentration series)” value was “+” in experiment [1] (0.1 μ mole/ml drug); “+” in experiment [1] (0.4 μ mole/ml drug); “+” in experiment [1] (0.5 μ mole/ml drug); “+” in experiment [1] (0.6 μ mole/ml drug); “-” in experiment [1] (0.8 μ mole/ml drug); “-” in experiment [1] (1.0 μ mole/ml drug). Besides, the “Growth (minimum inhibitory concentration series)” value in experiment [1] (2.0 μ mole/ml drug) is “-”. Moreover, the “Growth, drug + PABA” value in experiment [1] (0.5 μ mole/ml drug + PABA 0.05), in experiment [1] (1.0 μ mole/ml drug + PABA 0.1), in experiment [1] (2.0 μ mole/ml drug + PABA 0.01), in experiment [1] (2.0 μ mole/ml drug + PABA 0.1) and in experiment [1] (2.0 μ mole/ml drug + PABA 0.2) was “+” in each case.

With `NCc1ccc(S(N)(=O)=O)cc1` [Sulfamylon], in the experiment with Pseudomonas, the “PAB to Block” value was “neg”. The MIC in the experiment with Pseudomonas (Pseudomonas, read-out: Minimum Inhibitory Concentration vs Pseudomonas) amounted to 500 µM (≈ 93.1 µg/mL).
